Data as given in US10023570B2 (Array BioPharma, Inc., priority 2015, dated 2018).
Counter-ions that a name gives are not always drawn. Like-named read-outs stand apart in the source and are kept apart here.

Legend:
[1] = molecular target: human KDR protein in HEK-293 cells (Homo sapiens (Human), UniProt P35968); experiment: KDR Cell Assay (phospho-KDR in HEK-293 cells expressing inducible KDR); assay type: cell-based; details: pKDR Cell HEK 10% FBS IC50, HEK-293 cells expressing inducible KDR, VEGF stimulated
human KDR protein in HEK-293 cells, sequence (P35968 20-1356): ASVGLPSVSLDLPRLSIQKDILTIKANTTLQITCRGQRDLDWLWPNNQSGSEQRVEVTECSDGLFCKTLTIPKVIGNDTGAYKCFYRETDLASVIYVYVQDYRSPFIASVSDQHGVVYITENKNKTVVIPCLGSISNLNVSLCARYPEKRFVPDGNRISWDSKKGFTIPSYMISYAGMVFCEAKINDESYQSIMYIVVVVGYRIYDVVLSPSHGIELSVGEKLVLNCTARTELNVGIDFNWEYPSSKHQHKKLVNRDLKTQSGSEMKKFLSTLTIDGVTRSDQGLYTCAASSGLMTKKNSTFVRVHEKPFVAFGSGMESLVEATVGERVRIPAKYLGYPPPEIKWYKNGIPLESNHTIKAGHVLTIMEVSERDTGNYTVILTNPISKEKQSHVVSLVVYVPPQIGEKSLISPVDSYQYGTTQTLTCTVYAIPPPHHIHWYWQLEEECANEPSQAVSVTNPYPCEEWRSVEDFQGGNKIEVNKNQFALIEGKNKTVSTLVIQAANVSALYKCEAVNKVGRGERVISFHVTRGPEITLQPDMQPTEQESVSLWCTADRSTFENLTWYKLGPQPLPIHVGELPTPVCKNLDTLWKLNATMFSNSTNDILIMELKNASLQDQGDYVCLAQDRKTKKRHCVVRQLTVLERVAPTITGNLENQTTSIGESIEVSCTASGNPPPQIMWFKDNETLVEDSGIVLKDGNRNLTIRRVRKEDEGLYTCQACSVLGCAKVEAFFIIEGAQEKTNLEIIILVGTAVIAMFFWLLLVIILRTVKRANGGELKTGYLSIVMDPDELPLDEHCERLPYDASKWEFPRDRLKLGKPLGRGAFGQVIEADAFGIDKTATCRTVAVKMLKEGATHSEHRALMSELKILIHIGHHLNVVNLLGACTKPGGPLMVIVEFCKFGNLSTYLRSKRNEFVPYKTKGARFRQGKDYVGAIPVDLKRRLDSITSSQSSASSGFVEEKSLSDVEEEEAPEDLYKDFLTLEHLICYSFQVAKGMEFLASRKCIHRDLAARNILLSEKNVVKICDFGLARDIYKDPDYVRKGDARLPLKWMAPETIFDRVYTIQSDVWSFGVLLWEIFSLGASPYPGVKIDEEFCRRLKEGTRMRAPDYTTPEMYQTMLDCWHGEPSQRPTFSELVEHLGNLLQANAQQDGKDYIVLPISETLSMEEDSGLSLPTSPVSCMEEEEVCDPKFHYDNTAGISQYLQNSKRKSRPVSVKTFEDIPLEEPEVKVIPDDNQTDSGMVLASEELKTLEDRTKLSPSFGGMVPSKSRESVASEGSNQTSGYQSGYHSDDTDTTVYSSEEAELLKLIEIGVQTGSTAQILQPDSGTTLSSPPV
Summary of the method: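 HEK-293 cells with inducible human KDR were treated with compound for 1 h in DMEM (0.25% DMSO final), then lysed. Phospho-KDR was quantified by Meso Scale immunoassay, expressed as percent of control, and IC50 taken where a 4-parameter logistic fit crossed 50 POC.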

[2] = molecular target: Kif5b-RET fusion protein in HEK-293 cells (Homo sapiens, UniProt P07949); experiment: cell-based
Kif5b-RET fusion protein in HEK-293 cells, sequence (P07949 29-1114 limits assumed): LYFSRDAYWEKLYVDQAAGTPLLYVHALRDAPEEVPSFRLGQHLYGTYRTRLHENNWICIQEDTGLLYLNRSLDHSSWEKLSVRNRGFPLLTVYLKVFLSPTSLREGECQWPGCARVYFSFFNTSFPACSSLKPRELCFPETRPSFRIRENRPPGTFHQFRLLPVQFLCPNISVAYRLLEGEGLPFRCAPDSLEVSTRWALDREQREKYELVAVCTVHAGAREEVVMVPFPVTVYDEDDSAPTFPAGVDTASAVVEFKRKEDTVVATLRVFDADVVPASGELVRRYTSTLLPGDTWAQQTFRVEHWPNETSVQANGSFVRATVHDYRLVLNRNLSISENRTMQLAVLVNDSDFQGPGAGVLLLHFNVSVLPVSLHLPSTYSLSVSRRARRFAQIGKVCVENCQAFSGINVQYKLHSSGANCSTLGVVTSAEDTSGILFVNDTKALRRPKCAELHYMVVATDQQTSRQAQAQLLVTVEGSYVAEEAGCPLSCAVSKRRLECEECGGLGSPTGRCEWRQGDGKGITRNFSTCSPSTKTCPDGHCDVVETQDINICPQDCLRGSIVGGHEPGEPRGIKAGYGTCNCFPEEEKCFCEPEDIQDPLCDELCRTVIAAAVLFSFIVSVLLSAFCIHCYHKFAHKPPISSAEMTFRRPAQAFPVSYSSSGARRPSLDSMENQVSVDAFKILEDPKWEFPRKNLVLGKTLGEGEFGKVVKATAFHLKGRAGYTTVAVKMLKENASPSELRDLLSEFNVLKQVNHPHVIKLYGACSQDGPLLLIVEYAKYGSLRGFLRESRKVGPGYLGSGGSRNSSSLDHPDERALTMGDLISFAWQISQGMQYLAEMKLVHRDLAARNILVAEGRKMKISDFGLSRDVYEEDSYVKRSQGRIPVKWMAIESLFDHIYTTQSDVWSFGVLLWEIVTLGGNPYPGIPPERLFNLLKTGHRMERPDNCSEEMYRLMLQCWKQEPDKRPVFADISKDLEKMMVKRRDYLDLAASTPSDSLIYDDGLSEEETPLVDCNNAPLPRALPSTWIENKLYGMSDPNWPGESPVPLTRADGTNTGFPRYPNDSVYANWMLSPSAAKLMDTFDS

[3] = molecular target: N-terminal GST tagged recombinant human RET cytoplasmic domain (aa 658-end), wild type RET kinase (Homo sapiens (Human), UniProt P07949); experiment: RET Enzyme Assay (HTRF KinEASE-TK), wild type RET; assay type: biochemical
N-terminal GST tagged recombinant human RET cytoplasmic domain (aa 658-end), wild type RET kinase, sequence (P07949 658-1114): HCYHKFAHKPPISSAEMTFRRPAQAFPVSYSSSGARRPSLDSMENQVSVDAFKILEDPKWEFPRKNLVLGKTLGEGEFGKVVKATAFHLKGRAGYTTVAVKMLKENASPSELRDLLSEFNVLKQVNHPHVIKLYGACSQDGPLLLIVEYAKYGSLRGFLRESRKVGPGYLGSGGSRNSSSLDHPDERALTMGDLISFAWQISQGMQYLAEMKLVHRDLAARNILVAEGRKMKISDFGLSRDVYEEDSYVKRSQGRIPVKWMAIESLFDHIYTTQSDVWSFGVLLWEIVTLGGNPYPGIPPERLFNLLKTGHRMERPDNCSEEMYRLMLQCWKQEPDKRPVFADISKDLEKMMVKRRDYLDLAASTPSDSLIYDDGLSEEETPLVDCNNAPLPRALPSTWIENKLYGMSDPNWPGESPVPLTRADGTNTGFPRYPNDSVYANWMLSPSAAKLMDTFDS

[4] = HEK-293 cells expressing Kif5b-RET, read-out: KIF5B-RET pTYR1062 Cell IC50
[5] = HEK-293 cells expressing Kif5b-RET, phospho-RET(Tyr1062), read-out: KIF5B-RET pTYR1062 Cell IC50
[6] = read-out: KIF5B-RET pTYR1062 Cell IC50

| SMILES | IC50 [1] | IC50 [2, 4] | IC50 ([3]; wild type RET, 1 mM ATP) | IC50 [2] | IC50 ([1]; 10% FBS) | IC50 [2, 5] | IC50 [2, 6] | IC50 [3] |
| --- | --- | --- | --- | --- | --- | --- | --- | --- |
| COc1ncc(F)cc1CN1CCN(c2ccc(-c3cc(-c4cnn(C)c4)cn4ncc(C#N)c34)cn2)CC1 [Example 457, 4-(6-(4-((5-fluoro-2-methoxypyridin-3-yl)methyl)piperazin-1-yl)pyridin-3-yl)-6-(1-methyl-1H-pyrazol-4-yl)pyrazolo[1,5-a]pyridine-3-carbonitrile] | 0.877 µM | 0.0195 µM | 0.0131 µM |  |  |  |  |  |
| COc1ccc(CN2CCN(c3ccc(-c4cc(-c5cnn(C)c5)cn5ncc(C#N)c45)cn3)CC2)nc1 [Example 458, 4-(6-(4-((5-methoxypyridin-2-yl)methyl)piperazin-1-yl)pyridin-3-yl)-6-(1-methyl-1H-pyrazol-4-yl)pyrazolo[1,5-a]pyridine-3-carbonitrile] | 0.324 µM |  | 0.0069 µM | 0.0024 µM |  |  |  |  |
| CCN(C)C(=O)N1CCN(c2ccc(-c3cc(-c4cnn(C)c4)cn4ncc(C#N)c34)cn2)CC1 [Example 136, 4-(5-(3-cyano-6-(1-methyl-1H-pyrazol-4-yl)pyrazolo[1,5-a]pyridin-4-yl)pyridin-2-yl)-N-ethyl-N-methylpiperazine-1-carboxamide] |  |  | 0.0091 µM |  | 1.58 µM | 0.0119 µM |  |  |
| Cn1cc(-c2cc(-c3ccc(N4CCN(C(=O)[C@H](O)C(F)(F)F)CC4)nc3)c3c(C#N)cnn3c2)cn1 [Example 61, (S)-6-(1-methyl-1H-pyrazol-4-yl)-4-(6-(4-(3,3,3-trifluoro-2-hydroxypropanoyl)piperazin-1-yl)pyridin-3-yl)pyrazolo[1,5-a]pyridine-3-carbonitrile] |  |  | 0.0055 µM |  | 0.148 µM | 0.0055 µM |  |  |
| CC(C)N(CCO)C(=O)C1CCN(c2ccc(-c3cc(-c4cnn(C)c4)cn4ncc(C#N)c34)cn2)CC1 [Example 561, 1-(5-(3-cyano-6-(1-methyl-1H-pyrazol-4-yl)pyrazolo[1,5-a]pyridin-4-yl)pyridin-2-yl)-N-(2-hydroxyethyl)-N-isopropylpiperidine-4-carboxamide 2,2,2-trifluoroacetate] | 1.73 µM |  | 0.0238 µM | 0.0375 µM |  |  |  |  |
| C[C@H](NC(=O)C1CCN(c2ccc(-c3cc(-c4cnn(C)c4)cn4ncc(C#N)c34)cn2)CC1)C(F)(F)F [Example 231, (S)-1-(5-(3-cyano-6-(1-methyl-1H-pyrazol-4-yl)pyrazolo[1,5-a]pyridin-4-yl)pyridin-2-yl)-N-(1,1,1-trifluoropropan-2-yl)piperidine-4-carboxamide] |  |  | 0.0069 µM |  | 0.279 µM | 0.0056 µM |  |  |
| Cn1cc(-c2cc(-c3ccc(N4CCN(C(=O)NC(C)(C)C)CC4)nc3)c3c(C#N)cnn3c2)cn1 [Example 128, N-(tert-butyl)-4-(5-(3-cyano-6-(1-methyl-1H-pyrazol-4-yl)pyrazolo[1,5-a]pyridin-4-yl)pyridin-2-yl)piperazine-1-carboxamide] |  |  | 0.0116 µM |  | 0.555 µM | 0.0111 µM |  |  |
| CC(C)OCCN1CCN(c2ccc(-c3cc(-c4cnn(C)c4)cn4ncc(C#N)c34)cn2)CC1 [Example 392, 4-(6-(4-(2-isopropoxyethyl)piperazin-1-yl)pyridin-3-yl)-6-(1-methyl-1H-pyrazol-4-yl)pyrazolo[1,5-a]pyridin-3-carbonitrile] | 0.765 µM | 0.0036 µM | 0.0085 µM |  |  |  |  |  |
| CC(=O)N1CCN(c2ccc(-c3cc(-c4cnn(C)c4)cn4ncc(Cl)c34)cn2)CC1 [Example 330, 1-(4-(5-(3-chloro-6-(1-methyl-1H-pyrazol-4-yl)pyrazolo[1,5-a]pyridin-4-yl)pyridin-2-yl)piperazin-1-yl)ethanone] |  |  | 0.0383 µM |  | 0.566 µM | 0.084 µM |  |  |
| COCCN(C)C(=O)N1CCN(c2ccc(-c3cc(-c4cnn(C)c4)cn4ncc(C#N)c34)cn2)CC1 [Example 130, 4-(5-(3-cyano-6-(1-methyl-1H-pyrazol-4-yl)pyrazolo[1,5-a]pyridin-4-yl)pyridin-2-yl)-N-(2-methoxyethyl)-N-methylpiperazine-1-carboxamide 2,2,2-trifluoroacetate] |  |  | 0.0208 µM |  | 2.25 µM |  | 0.033 µM |  |
| CCN(CC)C(=O)N1CCN(c2ccc(-c3cc(-c4cnn(C)c4)cn4ncc(C#N)c34)cn2)CC1 [Example 98, 4-(5-(3-cyano-6-(1-methyl-1H-pyrazol-4-yl)pyrazolo[1,5-a]pyridin-4-yl)pyridin-2-yl)-N,N-diethylpiperazine-1-carboxamide] |  |  | 0.0036 µM |  | 1.6 µM | 0.013 µM |  |  |
| Cn1cc(-c2cc(-c3ccc(N4CCNCC4)nc3)c3c(Cl)cnn3c2)cn1 [Example 326, 3-chloro-6-(1-methyl-1H-pyrazol-4-yl)-4-(6-(piperazin-1-yl)pyridine-3-yl)pyrazolo[1,5-a]pyridine dihydrochloride] |  |  | 0.075 µM |  | 0.579 µM |  | 0.0704 µM |  |
| CCC1(C(=O)NCCC(F)(F)F)CCN(c2ccc(-c3cc(-c4cnn(C)c4)cn4ncc(C#N)c34)cn2)CC1 [Example 255, 1-(5-(3-cyano-6-(1-methyl-1H-pyrazol-4-yl)pyrazolo[1,5-a]pyridin-4-yl)pyridin-2-yl)-4-ethyl-N-(3,3,3-trifluoropropyl)piperidine-4-carboxamide] |  |  | 0.0091 µM |  | 1.09 µM | 0.0073 µM |  |  |
| CC(C)C[C@H](O)C(=O)N1CCN(c2ccc(-c3cc(-c4cnn(C)c4)cn4ncc(C#N)c34)cn2)CC1 [Example 56, (S)-4-(6-(4-(2-hydroxy-4-methylpentanoyl)piperazin-1-yl)pyridin-3-yl)-6-(1-methyl-1H-pyrazol-4-yl)pyrazolo[1,5-a]pyridine-3-carbonitrile] |  |  | 0.016 µM |  | 0.896 µM | 0.0355 µM |  |  |
| CN1CCN(c2ccc(-c3cc(-c4cnn(C)c4)cn4ncc(Cl)c34)cn2)CC1 [Example 333, 3-chloro-6-(1-methyl-1H-pyrazol-4-yl)-4-(6-(4-methylpiperazin-1-yl)pyridin-3-yl)pyrazolo[1,5-a]pyridine] |  |  | 0.0637 µM |  | 2.39 µM | 0.156 µM |  |  |
| CO[C@H](C)CN1CCN(c2ccc(-c3cc(-c4cnn(C)c4)cn4ncc(C#N)c34)cn2)CC1 [Example 412, (R)-4-(6-(4-(2-methoxypropyl)piperazin-1-yl)pyridin-3-yl)-6-(1-methyl-1H-pyrazol-4-yl)pyrazolo[1,5-a]pyridine-3-carbonitrile] | 2.13 µM | 0.0182 µM | 0.0216 µM |  |  |  |  |  |
| Cn1cc(-c2cc(-c3ccc(N4CCN(C(=O)CNC(C)(C)C)CC4)nc3)c3c(C#N)cnn3c2)cn1 [Example 22, 4-(6-(4-(2-(tert-butylamino)acetyl)piperazin-1-yl)pyridin-3-yl)-6-(1-methyl-1H-pyrazol-4-yl)pyrazolo[1,5-a]pyridine-3-carbonitrile dihydrochloride] |  |  | 0.0148 µM |  | 0.63 µM |  | 0.0225 µM |  |
| COc1cccnc1CN1CCN(c2ccc(-c3cc(-c4cnn(C)c4)cn4ncc(C#N)c34)cn2)CC1 [Example 463, 4-(6-(4-((3-methoxypyridin-2-yl)methyl)piperazin-1-yl)pyridin-3-yl)-6-(1-methyl-1H-pyrazol-4-yl)pyrazolo[1,5-a]pyridine-3-carbonitrile formate] | 0.678 µM |  | 0.0097 µM | 0.0177 µM |  |  |  |  |
| Cn1cc(-c2cc(-c3ccc(N4CCC(S(C)(=O)=O)CC4)nc3)c3c(C#N)cnn3c2)cn1 [Example 567, 6-(1-methyl-1H-pyrazol-4-yl)-4-(6-(4-(methylsulfonyl)piperidin-1-yl)pyridin-3-yl)pyrazolo[1,5-a]pyridine-3-carbonitrile] | 0.198 µM |  | 0.0031 µM | 0.0049 µM |  |  |  |  |
| Cn1cc(-c2cc(-c3ccc(N4CCC(C)(NC(=O)OC(C)(C)C)CC4)nc3)c3c(C#N)cnn3c2)cn1 [Example 201, tert-butyl (1-(5-(3-cyano-6-(1-methyl-1H-pyrazol-4-yl)pyrazolo[1,5-a]pyridin-4-yl)pyridin-2-yl)-4-methylpiperidin-4-yl)carbamate] |  |  | 0.0107 µM |  | 1.15 µM | 0.0071 µM |  |  |
| CC(C)C(=O)NC1CCN(c2ccc(-c3cc(-c4cnn(C)c4)cn4ncc(C#N)c34)cn2)CC1 [Example 185, N-(1-(5-(3-cyano-6-(1-methyl-1H-pyrazol-4-yl)pyrazolo[1,5-a]pyridin-4-yl)pyridin-2-yl)piperidin-4-yl)isobutyramide] |  |  | 0.0115 µM |  | 0.628 µM | 0.0143 µM |  |  |
| C[C@@H](NC(=O)C1CCN(c2ccc(-c3cc(-c4cnn(C)c4)cn4ncc(C#N)c34)cn2)CC1)C(F)(F)F [Example 233, (R)-1-(5-(3-cyano-6-(1-methyl-1H-pyrazol-4-yl)pyrazolo[1,5-a]pyridin-4-yl)pyridin-2-yl)-N-(1,1,1-trifluoropropan-2-yl)piperidine-4-carboxamide] |  |  | 0.0136 µM |  | 0.511 µM | 0.0273 µM |  |  |
| CC(C)NC(=O)CN1CCN(c2ccc(-c3cc(-c4cnn(C)c4)cn4ncc(C#N)c34)cn2)CC1 [Example 144, 2-(4-(5-(3-cyano-6-(1-methyl-1H-pyrazol-4-yl)pyrazolo[1,5-a]pyridin-4-yl)pyridin-2-yl)piperazin-1-yl)-N-isopropylacetamide 2,2,2-trifluoroacetate] |  |  |  |  | 1.68 µM | 0.0589 µM |  | 0.0252 µM |
| COC(=O)C1(C)CCN(c2ccc(-c3cc(-c4cnn(C)c4)cn4ncc(C#N)c34)cn2)CC1 [Example 254, Methyl 1-(5-(3-cyano-6-(1-methyl-1H-pyrazol-4-yl)pyrazolo[1,5-a]pyridin-4-yl)pyridin-2-yl)-4-methylpiperidine-4-carboxylate] |  |  | 0.0092 µM |  | 0.446 µM | 0.0123 µM |  |  |
